ChEMBL document CHEMBL4431337, “Synthesis and bioactivities of novel pyrazole oxime derivatives containing a 1,2,3-thiadiazole moiety” (Bioorg Med Chem Lett, 2016)

Columns and labels:
HCT-116 = experiment: Cytotoxicity against human HCT116 cells assessed as inhibition of cell growth after 48 hrs by MTT assay; type: functional, cell-based; conditions: HCT-116, 48 h
Tetranychus cinnabarinus [1] = experiment: Acaricidal activity against Tetranychus cinnabarinus assessed as mortality at 50 ug/ml pre-incubated with mite-infested Sieva bean plants for 3 secs and measured 48 hrs post dose; type: functional
PANC-1 = experiment: Cytotoxicity against human PANC1 cells assessed as inhibition of cell growth after 48 hrs by MTT assay; type: functional, cell-based; conditions: PANC-1, 48 h
Aphis craccivora [2] = experiment: Insecticidal activity against Aphis craccivora assessed as mortality at 200 ug/ml pre-incubated with horsebean shoot with aphids for 2 secs and measured 48 hrs post dose by foliar application method; type: functional
SGC-7901 = experiment: Cytotoxicity against human SGC7901 cells assessed as inhibition of cell growth after 48 hrs by MTT assay; type: functional, cell-based; conditions: SGC-7901, 48 h
Aphis craccivora [3] = experiment: Insecticidal activity against Aphis craccivora assessed as mortality at 100 ug/ml pre-incubated with horsebean shoot with aphids for 2 secs and measured 48 hrs post dose by foliar application method; type: functional
Plutella xylostella [4] = experiment: Insecticidal activity against Plutella xylostella assessed as mortality at 100 ug/ml pre-incubated with cabbage leaves for 2 to 3 secs and measured 48 hrs post dose by leaf disc assay; type: functional; conditions: foliar
Aphis craccivora [5] = experiment: Insecticidal activity against Aphis craccivora assessed as mortality at 50 ug/ml pre-incubated with horsebean shoot with aphids for 2 secs and measured 48 hrs post dose by foliar application method; type: functional
Plutella xylostella [6] = experiment: Insecticidal activity against Plutella xylostella assessed as mortality at 200 ug/ml pre-incubated with cabbage leaves for 2 to 3 secs and measured 48 hrs post dose by leaf disc assay; type: functional; conditions: foliar
Huh-7 = experiment: Cytotoxicity against human HuH7 cells assessed as inhibition of cell growth after 48 hrs by MTT assay; type: functional, cell-based; conditions: Huh-7, 48 h
Tetranychus cinnabarinus [7] = experiment: Acaricidal activity against Tetranychus cinnabarinus assessed as mortality at 100 ug/ml pre-incubated with mite-infested Sieva bean plants for 3 secs and measured 48 hrs post dose; type: functional
Tetranychus cinnabarinus [8] = experiment: Acaricidal activity against Tetranychus cinnabarinus assessed as mortality at 200 ug/ml pre-incubated with mite-infested Sieva bean plants for 3 secs and measured 48 hrs post dose; type: functional
Plutella xylostella [9] = experiment: Insecticidal activity against Plutella xylostella assessed as mortality at 50 ug/ml pre-incubated with cabbage leaves for 2 to 3 secs and measured 48 hrs post dose by leaf disc assay; type: functional; conditions: foliar

| SMILES | IC50 (HCT-116) [µM] | mortality at 50 µg/mL (Tetranychus cinnabarinus [1]) [%] | IC50 (PANC-1) [µM] | mortality at 200 µg/mL (Aphis craccivora [2]) [%] | IC50 (SGC-7901) [µM] | mortality at 100 µg/mL (Aphis craccivora [3]) [%] | mortality at 100 µg/mL (Plutella xylostella [4]) [%] | mortality at 50 µg/mL (Aphis craccivora [5]) [%] | mortality at 200 µg/mL (Plutella xylostella [6]) [%] | IC50 (Huh-7) [µM] | mortality at 100 µg/mL (Tetranychus cinnabarinus [7]) [%] | mortality at 200 µg/mL (Tetranychus cinnabarinus [8]) [%] | mortality at 50 µg/mL (Plutella xylostella [9]) [%] |
| --- | --- | --- | --- | --- | --- | --- | --- | --- | --- | --- | --- | --- | --- |
| Cc1nnsc1CO/N=C/c1c(C)nn(C)c1Oc1cccc(F)c1 | > 50 | 0 | > 50 | 98 | > 50 | 80 | 0 | 52 | 71 | > 50 | 50 | 80 |  |
| Cc1nnsc1CO/N=C/c1c(C)nn(C)c1Cl | > 50 |  | 26.6 | 100 | > 50 | 85 | 0 | 61 | 100 | > 50 |  | 0 |  |
| Cc1nnsc1CO/N=C/c1c(C)nn(C)c1Oc1ccccc1OC(F)(F)F | > 50 |  | > 50 | 22 | > 50 |  | 0 |  | 66 | > 50 |  | 0 |  |
| Cc1nnsc1CO/N=C/c1c(C)nn(C)c1Oc1ccccc1Cl | 42.5 |  | > 50 | 15 | > 50 |  | 0 |  | 100 | > 50 |  | 0 |  |
| Cc1nnsc1CO/N=C/c1c(C)nn(C)c1Oc1ccc(Br)cc1 | 7.19 |  | 12.8 | 20 | 15.2 |  | 80 |  | 100 | 11.8 |  | 0 | 43 |
| CCCc1nnsc1CO/N=C/c1c(C)nn(C)c1Oc1ccccc1C | 15.7 |  | > 50 | 0 | 16.3 |  |  |  | 0 | > 50 |  | 0 |  |
| CCc1nnsc1CO/N=C/c1c(C)nn(C)c1Oc1ccc(OC(F)(F)F)cc1 | 12.5 |  | > 50 | 0 | 13.6 |  |  |  | 0 | > 50 |  | 0 |  |
| CCCc1nnsc1CO/N=C/c1c(C)nn(C)c1Cl | > 50 |  | > 50 | 0 | > 50 |  |  |  | 0 | > 50 |  | 0 |  |
| CCc1nnsc1CO/N=C/c1c(C)nn(C)c1Oc1ccccc1Cl | 17.6 |  | > 50 | 0 | 15.8 |  |  |  | 0 | > 50 |  | 0 |  |
| Cc1nnsc1CO/N=C/c1c(C)nn(C)c1Oc1cccc(F)c1F | 6.56 |  | 12.2 | 19 | 25.7 |  | 0 |  | 100 | 10.2 |  | 0 |  |
| CCCc1nnsc1CO/N=C/c1c(C)nn(C)c1Oc1ccccc1Cl | 16.4 |  | > 50 | 0 | 17.6 |  |  |  | 0 | > 50 |  | 0 |  |
| Cc1nnsc1CO/N=C/c1c(C)nn(C)c1Oc1ccc(OC(F)(F)F)cc1 | 12.8 |  | > 50 | 100 | 11.5 | 85 | 0 | 59 | 50 | > 50 |  | 80 |  |
| Cc1cccc(Oc2c(/C=N/OCc3snnc3C)c(C)nn2C)c1 | 14.1 |  | > 50 | 90 | 12.8 | 70 | 0 | 38 | 84 | > 50 |  | 0 |  |
| CCc1nnsc1CO/N=C/c1c(C)nn(C)c1Cl | > 50 |  | > 50 | 0 | > 50 |  |  |  | 0 | > 50 |  | 0 |  |
